Data reported in ChEMBL document CHEMBL3046912, “Effectiveness of 1,3-dichloropropene as an alternative to methyl bromide in rotations of tomato (Solanum lycopersicum) and cucumber (Cucumis sativus) in China” (2012).
Active and inactive are the calls of the source. The rule behind the calls is not given here.

What was measured:
[1] = system: Solanum lycopersicum; experiment: Increase in crop yield in Solanum lycopersicum (tomato) plants exposed to 90 L/ha compound fumigation treatment assessed as marketable yield fruit yield (reference value: 51.3 ton/ha); assay type: functional
[2] = system: Meloidogyne incognita; experiment: Nematicidal activity against Meloidogyne incognita (root-knot nematode) in tomato growing fields exposed to 180 L/ha compound fumigation treatment assessed as root galling index measured 20 days after compound treatment (reference value: 8.51 root galling index); assay type: functional
[3] = system: Digitaria sanguinalis; experiment: Herbicidal activity against Digitaria sanguinalis (hairy crabgrass) in tomato plants fields exposed to 180 L/ha compound fumigation treatment assessed as hand weeding time per plot relative to untreated control; assay type: functional
[4] = system: Arenaria serpyllifolia; experiment: Herbicidal activity against Arenaria serpyllifolia in cucumber plants fields exposed to 90 L/ha compound fumigation treatment assessed as hand weeding time per plot (reference value: 258.3 hr/ha); assay type: functional
[5] = system: Arenaria serpyllifolia; experiment: Herbicidal activity against Arenaria serpyllifolia in tomato plants fields exposed to 120 L/ha compound fumigation treatment assessed as hand weeding time per plot relative to untreated control; assay type: functional
[6] = system: Cucumis sativus; experiment: Increase in plant height of Cucumis sativus (cucumber) exposed to 120 L/ha compound fumigation treatment measured 50 days after compound treatment (reference value: 103.2 cm); assay type: functional
[7] = system: Arenaria serpyllifolia; experiment: Herbicidal activity against Arenaria serpyllifolia in tomato plants fields exposed to 120 L/ha compound fumigation treatment assessed as hand weeding time per plot (reference value: 243.3 hr/ha); assay type: functional
[8] = system: Digitaria sanguinalis; experiment: Herbicidal activity against Digitaria sanguinalis (hairy crabgrass) in tomato plants fields exposed to 120 L/ha compound fumigation treatment assessed as hand weeding time per plot relative to untreated control; assay type: functional
[9] = system: Cucumis sativus; experiment: Increase in plant height of Cucumis sativus (cucumber) exposed to 180 L/ha compound fumigation treatment measured 30 days after compound treatment (reference value: 85.6 cm); assay type: functional
[10] = system: Solanum lycopersicum; experiment: Increase in plant height of Solanum lycopersicum (tomato) exposed to 180 L/ha compound fumigation treatment measured 50 days after compound treatment (reference value: 86.2 cm); assay type: functional
[11] = system: Arenaria serpyllifolia; experiment: Herbicidal activity against Arenaria serpyllifolia in cucumber plants fields exposed to 90 L/ha compound fumigation treatment assessed as hand weeding time per plot relative to untreated control; assay type: functional
[12] = system: Solanum lycopersicum; experiment: Increase in crop yield in Cucumis sativus (cucumber) plants exposed to 180 L/ha compound fumigation treatment assessed as marketable yield fruit yield (reference value: 65.3 ton/ha); assay type: functional
[13] = system: Solanum lycopersicum; experiment: Increase in crop yield in Solanum lycopersicum (tomato) plants exposed to 180 L/ha compound fumigation treatment assessed as large fruit yield (reference value: 15.2 ton/ha); assay type: functional
[14] = system: Capsella bursa-pastoris; experiment: Herbicidal activity against Capsella bursa-pastoris in cucumber plants fields exposed to 180 L/ha compound fumigation treatment assessed as hand weeding time per plot relative to untreated control; assay type: functional
[15] = system: Solanum lycopersicum; experiment: Increase in crop yield in Solanum lycopersicum (tomato) plants exposed to 120 L/ha compound fumigation treatment assessed as marketable yield fruit yield (reference value: 51.3 ton/ha); assay type: functional
[16] = system: Capsella bursa-pastoris; experiment: Herbicidal activity against Capsella bursa-pastoris in tomato plants fields exposed to 90 L/ha compound fumigation treatment assessed as hand weeding time per plot relative to untreated control; assay type: functional
[17] = system: Solanum lycopersicum; experiment: Increase in crop yield in Solanum lycopersicum (tomato) plants exposed to 120 L/ha compound fumigation treatment assessed as extra-large fruit yield (reference value: 3.8 ton/ha); assay type: functional
[18] = system: Capsella bursa-pastoris; experiment: Herbicidal activity against Capsella bursa-pastoris in tomato plants fields exposed to 180 L/ha compound fumigation treatment assessed as hand weeding time per plot relative to untreated control; assay type: functional
[19] = system: Solanum lycopersicum; experiment: Increase in plant height of Solanum lycopersicum (tomato) exposed to 90 L/ha compound fumigation treatment measured 50 days after compound treatment (reference value: 86.2 cm); assay type: functional
[20] = system: Digitaria sanguinalis; experiment: Herbicidal activity against Digitaria sanguinalis (hairy crabgrass) in tomato plants fields exposed to 180 L/ha compound fumigation treatment assessed as hand weeding time per plot (reference value: 243.3 hr/ha); assay type: functional
[21] = system: Solanum lycopersicum; experiment: Increase in crop yield in Solanum lycopersicum (tomato) plants exposed to 120 L/ha compound fumigation treatment assessed as large fruit yield (reference value: 15.2 ton/ha); assay type: functional
[22] = system: Digitaria sanguinalis; experiment: Herbicidal activity against Digitaria sanguinalis (hairy crabgrass) in cucumber plants fields exposed to 120 L/ha compound fumigation treatment assessed as hand weeding time per plot relative to untreated control; assay type: functional
[23] = system: Capsella bursa-pastoris; experiment: Herbicidal activity against Capsella bursa-pastoris in cucumber plants fields exposed to 120 L/ha compound fumigation treatment assessed as hand weeding time per plot relative to untreated control; assay type: functional
[24] = system: Solanum lycopersicum; experiment: Increase in crop yield in Cucumis sativus (cucumber) plants exposed to 120 L/ha compound fumigation treatment assessed as extra-large fruit yield (reference value: 7.2 ton/ha); assay type: functional
[25] = system: Capsella bursa-pastoris; experiment: Herbicidal activity against Capsella bursa-pastoris in cucumber plants fields exposed to 120 L/ha compound fumigation treatment assessed as hand weeding time per plot (reference value: 258.3 hr/ha); assay type: functional
[26] = system: Solanum lycopersicum; experiment: Increase in crop yield in Cucumis sativus (cucumber) plants exposed to 90 L/ha compound fumigation treatment assessed as marketable yield fruit yield (reference value: 65.3 ton/ha); assay type: functional
[27] = system: Meloidogyne incognita; experiment: Nematicidal activity against Meloidogyne incognita (root-knot nematode) in cucumber growing fields exposed to 90 L/ha compound fumigation treatment assessed as root galling index measured 20 days after compound treatment (reference value: 8.72 root galling index); assay type: functional
[28] = system: Botrytis cinerea; experiment: Fungicidal activity against Botryotinia fuckeliana-induced withering in tomato plants at 120 to 180 L/ha measured 20 to 60 days post compound treatment; assay type: functional, organism-based
[29] = system: Arenaria serpyllifolia; experiment: Herbicidal activity against Arenaria serpyllifolia in tomato plants fields exposed to 90 L/ha compound fumigation treatment assessed as hand weeding time per plot (reference value: 243.3 hr/ha); assay type: functional
[30] = system: Arenaria serpyllifolia; experiment: Herbicidal activity against Arenaria serpyllifolia in tomato plants fields exposed to 90 L/ha compound fumigation treatment assessed as hand weeding time per plot relative to untreated control; assay type: functional
[31] = system: Solanum lycopersicum; experiment: Increase in crop yield in Cucumis sativus (cucumber) plants exposed to 120 L/ha compound fumigation treatment assessed as medium fruit yield (reference value: 38.6 ton/ha); assay type: functional
[32] = system: Arenaria serpyllifolia; experiment: Herbicidal activity against Arenaria serpyllifolia in tomato plants fields exposed to 180 L/ha compound fumigation treatment assessed as hand weeding time per plot (reference value: 243.3 hr/ha); assay type: functional
[33] = system: Solanum lycopersicum; experiment: Increase in plant height of Solanum lycopersicum (tomato) exposed to 90 L/ha compound fumigation treatment measured 30 days after compound treatment (reference value: 28.4 cm); assay type: functional
[34] = system: Capsella bursa-pastoris; experiment: Herbicidal activity against Capsella bursa-pastoris in tomato plants fields exposed to 90 L/ha compound fumigation treatment assessed as hand weeding time per plot (reference value: 243.3 hr/ha); assay type: functional
[35] = system: Arenaria serpyllifolia; experiment: Herbicidal activity against Arenaria serpyllifolia in cucumber plants fields exposed to 180 L/ha compound fumigation treatment assessed as hand weeding time per plot (reference value: 258.3 hr/ha); assay type: functional
[36] = system: Meloidogyne incognita; experiment: Nematicidal activity against Meloidogyne incognita (root-knot nematode) in tomato growing fields exposed to 90 L/ha compound fumigation treatment assessed as root galling index measured 20 days after compound treatment (reference value: 8.51 root galling index); assay type: functional
[37] = system: Solanum lycopersicum; experiment: Increase in plant height of Solanum lycopersicum (tomato) exposed to 180 L/ha compound fumigation treatment measured 30 days after compound treatment (reference value: 28.4 cm); assay type: functional

## Cl/C=C/CCl [1,3-DICHLOROPROPENE]
[1]
  Crop_yield: 62.4 tons/ha
[2]
  Root_galling_index: 2.34
[3]
  Activity: 45%
[4]
  Time: 90.5 hr/ha
[5]
  Activity: 45%
[6]
  Activity: 120.5 cm
[7]
  Time: 66.4 hr/ha
[8]
  Activity: 45%
[9]
  Activity: 105.6 cm
[10]
  Activity: 117.8 cm
[11]
  Activity: 45%
[12]
  Crop_yield: 98.8 tons/ha
[13]
  Crop_yield: 22.6 tons/ha
[14]
  Activity: 45%
[15]
  Crop_yield: 68.1 tons/ha
[16]
  Activity: 45%
[17]
  Crop_yield: 6.4 tons/ha
[18]
  Activity: 45%
[19]
  Activity: 98.3 cm
[20]
  Time: 55.6 hr/ha
[21]
  Crop_yield: 19.2 tons/ha
[22]
  Activity: 45%
[23]
  Activity: 45%
[24]
  Crop_yield: 12.1 tons/ha
[25]
  Time: 74.4 hr/ha
[26]
  Crop_yield: 84 tons/ha
[27]
  Root_galling_index: 4.28
[28]
  Activity: Active
[29]
  Time: 85.6 hr/ha
[30]
  Activity: 45%
[31]
  Crop_yield: 49.1 tons/ha
[32]
  Time: 55.6 hr/ha
[33]
  Activity: 32.4 cm
[34]
  Time: 85.6 hr/ha
[35]
  Time: 62.3 hr/ha
[36]
  Root_galling_index: 3.28
[37]
  Activity: 45.4 cm
